Test results taken from patent US20040167220A1, “Environmentally safe fungicide and bactericide formulations” (priority 2003, published 2004).

Legend:
Botrytis cinerea [1] = experiment: In vitro PDA plate test against fungal plant pathogens; assay type: cell-based; also: key: 0 - no activity, mycelial growth occurred; Fs - Fungistatic activity; Fd - Fungicidal effect - mycelial growth was completely inhibited
Fusarium proliferatum = experiment: as above; assay type: cell-based; also: key: 0 - no activity, mycelial growth occurred; Fs - Fungistatic activity; Fd - Fungicidal effect - mycelial growth was completely inhibited
[2] = tested on: Colletotrichum graminicola; experiment: as above; assay type: cell-based; also: key: 0 - no activity, mycelial growth occurred; Fs - Fungistatic activity; Fd - Fungicidal effect - mycelial growth was completely inhibited
Rhytisma acerinum = experiment: as above; assay type: cell-based; also: key: 0 - no activity, mycelial growth occurred; Fs - Fungistatic activity; Fd - Fungicidal effect - mycelial growth was completely inhibited
Alternaria solani [3] = experiment: as above; assay type: cell-based
Fusarium nygamai [4] = experiment: as above; assay type: cell-based; details: sodium benzoate 5.0 mM, pH adjusted with citric acid
Sclerotinia homoeocarpa = experiment: as above; assay type: cell-based; details: sodium benzoate 5.0 mM, pH adjusted with citric acid
Sclerotinia sclerotiorum = experiment: as above; assay type: cell-based; details: sodium benzoate 5.0 mM, pH adjusted with citric acid
Fusarium moniliforme = experiment: as above; assay type: cell-based; details: sodium benzoate 5.0 mM, pH adjusted with citric acid
Botrytis cinerea [5] = details: preservative used without the acidic pH of the invention
Alternaria solani [6] = details: preservative used without the acidic pH of the invention
Fusarium nygamai [7] = details: preservative used without the acidic pH of the invention
[8] = potassium sorbate and citric acid in PDA, examined after 2, 4, 6 days, viability on untreated PDA
[9] = potassium sorbate/citric acid formulations, with or without surfactants, in PDA
[10] = sodium benzoate 5.0 mM, pH adjusted with citric acid, in PDA

For `C/C=C/C=C/C(=O)[O-].[K+]` [Control A, potassium sorbate], the “Activity against Botrytis cinerea” value (Botrytis cinerea [1]; [8]) was 0, the “Activity against Fusarium proliferatum” value (Fusarium proliferatum; [8]) was 0 and the “Activity against Colletotrichum gram.” value [2, 8] was 0. The “Activity against Rhytisma acerinum” value (Rhytisma acerinum; [8]) was 0 and the “Activity against Alternaria solani” value (Alternaria solani [3]; [8]) was 0.
In the case of `C/C=C/C=C/C(=O)[O-].[K+]` [Control B, potassium sorbate], the “Activity against Botrytis cinerea” value (Botrytis cinerea [1]; [9]) is reported as 0, the “Activity against Fusarium proliferatum” value (Fusarium proliferatum; [9]) is reported as 0 and the “Activity against Colletotrichum gram.” value [2, 9] is reported as 0. The “Activity against Rhytisma acerinum” value (Rhytisma acerinum; [9]) was 0 and the “Activity against Alternaria solani” value (Alternaria solani [3]; [9]) was 0.
For `O=C([O-])c1ccccc1.[Na+]` [Control C, sodium benzoate], the “Activity against Fusarium nygamai” value (Fusarium nygamai [4]) was 0, the “Activity against Sclerotinia homoeocarpa” value (Sclerotinia homoeocarpa) was 0 and the “Activity against Botrytis cinerea” value (Botrytis cinerea [1]; [10]) was 0. For the same compound, the “Activity against Fusarium proliferatum” value (Fusarium proliferatum; [10]) was 0, the “Activity against Sclerotinia sclerotiorum” value (Sclerotinia sclerotiorum) was 0 and the “Activity against Colletotrichum graminicola” value [2, 10] was 0. For the same compound, the “Activity against Rhytisma acerinum” value (Rhytisma acerinum; [10]) was 0, the “Activity against Fusarium moniliforme” value (Fusarium moniliforme) was 0 and the “Activity against Alternaria solani” value (Alternaria solani [3]; [10]) was 0.
With `C/C=C/C=C/C(=O)[O-].[K+]` [potassium sorbate] the “concentration required to kill Botrytis cinerea” value (Botrytis cinerea [5]) was “greater than 2%”, the “concentration required to kill Alternaria solani” value (Alternaria solani [6]) was “greater than 2%” and the “concentration required to kill Fusarium nygamai” value (Fusarium nygamai [7]) was “greater than 2%”. For the same compound, the pathogens killed (plant pathogens; 1 mM (0.0015%), pH 4.1, surfactants added) was 7 out of 8, the “activity against the broad range of plant pathogens tested” value (plant pathogens; 5 mM (0.075% solution), pH 4.1) was “cidal activity” and the “activity against plant pathogens” value (plant pathogens; 10 mM (0.15% solution), pH above 7.0) was “inactive or at best exhibits only static activity”. For the same compound, the “number of pathogens with cidal activity” value (plant pathogens; down to 1 mM sorbate or lower, pH 4.1) was “two”.
With `O=C([O-])c1ccccc1.[Na+]` [sodium benzoate] the “control of the plant pathogens” value (plant pathogens; 5 mM (0.072% solution), pH above 7.0) was “ineffective”, the “species tested being killed” value (plant pathogens; 5 mM, pH 4.1) was 10 out of 10 and the “species with cidal activity” value (plant pathogens; 5 mM, pH 4.6) was 6 out of 10.
